Measurements: patent US20220264878A1, “HERBICIDAL COMPOSITION CONTAINING R-TYPE PYRIDYLOXY CARBOXYLIC ACID DERIVATIVE AND USE THEREOF” (Qingdao Kingagroot Chemical Compound Co., Ltd., priority 2019, published 2022)
Like-named read-outs stand apart in the source and are kept apart here.

Assays:
Format in all cases: in vivo
[1] = test system: Alopecurus japonicus; experiment: Post-emergence foliage spray, pot culture, fresh weight inhibition (Tables 151-206; 20 days)
Summary of the method: (§1)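 Field-collected weeds grown in pots in a greenhouse (20-30° C., natural light, 57-72% RH), 15 per pot, 3 pots × 4 replicates. Single foliar spray at 4-5 leaves (grasses) or 5-6 leaves (broadleaf) with acetone/0.1% Tween-80 dilutions at 450 kg/ha, 0.3 MPa. Above-ground fresh weight inhibition versus solvent blank at 20 days.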

[2] = test system: Digitaria sanguinalis; experiment: as above; conditions: Digitaria sanguinalis, 480 h, read-out: Control effect (%) of A applied alone in corresponding dose
Summary of the method: as §1

[3] = test system: Eleusine indica; experiment: as above
Summary of the method: as §1

[4] = test system: Sinapis arvensis; experiment: as above
Summary of the method: as §1

[5] = test system: Malachium aquaticum; experiment: Post-emergence foliage spray, pot culture, fresh weight inhibition (Tables 1-48, 51-98, 101-148; 24 days)
Summary of the method: (§2)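 Pot-grown weeds were thinned to 15 per pot (45 per treatment) and sprayed on foliage at the 5–6-leaf stage for grasses or the 6–7-leaf stage for broadleaves. Agents were dissolved in acetone with 0.1% Tween-80 and applied at 450 kg/ha spray volume and 0.3 MPa. Plants were then kept in a greenhouse. Above-ground fresh weight of survivors, with dead plants counted as zero, gave inhibition versus a solvent/emulsifier blank.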

[6] = test system: Echinochloa caudate; experiment: as above
Summary of the method: as §2

[7] = test system: Chenopodium album; experiment: as above
Summary of the method: as §2

[8] = test system: Capsella bursa-pastoris; experiment: Post-emergence foliage spray, pot culture, fresh weight inhibition (Tables 151-206; 20 days); conditions: Capsella bursa-pastoris, 480 h, read-out: Control effect (%) of A applied alone in corresponding dose
Summary of the method: (§3)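 Pre-germinated seeds (25° C soak 6 h, 28° C dark) grown in pots, thinned to 15 per pot; foliage-sprayed at 4~5-leaf (grasses) or 5~6-leaf (broadleaf) stage, 450 kg/ha spray volume, 0.3 MPa. Agents in acetone diluted with 0.1% Tween-80 water; solvent blank control. Above-ground fresh weight weighed, dead weeds scored zero.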

[9] = test system: Amaranthus retroflexus; experiment: as above
Summary of the method: as §3

[10] = test system: Galium aparine L.; experiment: Post-emergence foliage spray, pot culture, fresh weight inhibition (Tables 1-48, 51-98, 101-148; 24 days); conditions: fresh weight inhibition after 24 days
Summary of the method: as §2

[11] = test system: Echinochloa crusgalli var. zelayensis; experiment: as above
Summary of the method: as §2

[12] = A alone 75 g a.i./ha, 20 days after treatment
[13] = A alone 150 g a.i./ha, 20 days after treatment

## C[C@@H](Oc1nc(F)c(Cl)c(N)c1Cl)C(=O)O [Compound A1]
[1]; A 75 g a.i./ha, 20 days
  Control effect (%) of A applied alone in corresponding dose: 31.3%
[1]; A 150 g a.i./ha, 20 days
  Control effect (%) of A applied alone in corresponding dose: 57.6%
[2]; A 75 g a.i./ha, 20 days
  pest or weed control at 75 g/ha: 25.9%
[2]; A 150 g a.i./ha, 20 days
  pest or weed control at 150 g/ha: 69.1%
[3]; A 75 g a.i./ha, 20 days
  Control effect (%) of A applied alone in corresponding dose: 46.9%
[3]; A 150 g a.i./ha, 20 days
  Control effect (%) of A applied alone in corresponding dose: 81.2%
[4]; A 75 g a.i./ha, 20 days
  Control effect (%) of A applied alone in corresponding dose: 50.4%
[4]; A 150 g a.i./ha, 20 days
  Control effect (%) of A applied alone in corresponding dose: 79.9%
[5]; A1 7.5 g a.i./ha
  Control effect (%) of A applied alone in corresponding dose: 35.8%
[5]; A1 15 g a.i./ha
  Control effect (%) of A applied alone in corresponding dose: 69.6%
[6]; A1 75 g a.i./ha
  Control effect (%) of A applied alone in corresponding dose: 55.2%
[6]; A1 150 g a.i./ha
  Control effect (%) of A applied alone in corresponding dose: 76.3%
[6]; Table 80, 7.5 g a.i./ha
  Control effect (%) of A applied alone in corresponding dose: 55.2%
[6]; Table 80, 15 g a.i./ha
  Control effect (%) of A applied alone in corresponding dose: 76.3%
[6]; Table 81, 75 g a.i./ha
  Control effect (%) of A applied alone in corresponding dose: 55.2%
[6]; Table 81, 150 g a.i./ha
  Control effect (%) of A applied alone in corresponding dose: 76.3%
[6]; Table 85, 75 g a.i./ha
  Control effect (%) of A applied alone in corresponding dose: 55.2%
[6]; Table 85, 150 g a.i./ha
  Control effect (%) of A applied alone in corresponding dose: 76.3%
[6]; Table 86, 75 g a.i./ha
  Control effect (%) of A applied alone in corresponding dose: 55.2%
[6]; Table 86, 150 g a.i./ha
  Control effect (%) of A applied alone in corresponding dose: 76.3%
[6]; Table 89, 75 g a.i./ha
  Control effect (%) of A applied alone in corresponding dose: 55.2%
[6]; Table 89, 150 g a.i./ha
  Control effect (%) of A applied alone in corresponding dose: 76.3%
[6]; Table 97, 75 g a.i./ha
  Control effect (%) of A applied alone in corresponding dose: 55.2%
[6]; Table 97, 150 g a.i./ha
  Control effect (%) of A applied alone in corresponding dose: 76.3%
[7]; A1 7.5 g a.i./ha
  Control effect (%) of A applied alone in corresponding dose: 23.1%
[7]; A1 15 g a.i./ha
  Control effect (%) of A applied alone in corresponding dose: 55.6%
[7]; Table 91, 75 g a.i./ha
  Control effect (%) of A applied alone in corresponding dose: 23.1%
[7]; Table 91, 150 g a.i./ha
  Control effect (%) of A applied alone in corresponding dose: 55.6%
[7]; Table 92, 75 g a.i./ha
  Control effect (%) of A applied alone in corresponding dose: 23.1%
[7]; Table 92, 150 g a.i./ha
  Control effect (%) of A applied alone in corresponding dose: 55.6%
[7]; Table 93, 75 g a.i./ha
  Control effect (%) of A applied alone in corresponding dose: 23.1%
[7]; Table 93, 150 g a.i./ha
  Control effect (%) of A applied alone in corresponding dose: 55.6%
[7]; Table 94, 75 g a.i./ha
  Control effect (%) of A applied alone in corresponding dose: 23.1%
[7]; Table 94, 150 g a.i./ha
  Control effect (%) of A applied alone in corresponding dose: 55.6%
[7]; Table 95, 75 g a.i./ha
  Control effect (%) of A applied alone in corresponding dose: 23.1%
[7]; Table 95, 150 g a.i./ha
  Control effect (%) of A applied alone in corresponding dose: 55.6%
[7]; Table 96, 75 g a.i./ha
  Control effect (%) of A applied alone in corresponding dose: 23.1%
[7]; Table 96, 150 g a.i./ha
  Control effect (%) of A applied alone in corresponding dose: 55.6%
[8]; A 75 g a.i./ha, 20 days
  pest or weed control at 75 g/ha: 56.5%
[8]; A 150 g a.i./ha, 20 days
  pest or weed control at 150 g/ha: 82.4%
[9]; A 75 g a.i./ha, 20 days
  Control effect (%) of A applied alone in corresponding dose: 35.4%
[9]; A 150 g a.i./ha, 20 days
  Control effect (%) of A applied alone in corresponding dose: 71.7%

## C[C@@H](Oc1nc(F)c(Cl)c(N)c1Cl)C(=O)OCC1CCCO1 (stereo partly shown) [Compound A2]
[1]; [12]
  Control effect (%) of A applied alone in corresponding dose: 24.4%
[1]; [13]
  Control effect (%) of A applied alone in corresponding dose: 44.5%
[2]; [12]
  pest or weed control at 75 g/ha: 19.4%
[2]; [13]
  pest or weed control at 150 g/ha: 51.6%
[3]; [12]
  Control effect (%) of A applied alone in corresponding dose: 35.7%
[3]; [13]
  Control effect (%) of A applied alone in corresponding dose: 63.3%
[4]; [12]
  Control effect (%) of A applied alone in corresponding dose: 37.9%
[4]; [13]
  Control effect (%) of A applied alone in corresponding dose: 60.4%
[10]; A 7.5 g a.i/ha
  Control effect (%) of A applied alone in corresponding dose: 34.8%
[10]; A 15 g a.i/ha
  Control effect (%) of A applied alone in corresponding dose: 68.5%
[10]; A 150 g a.i/ha (so in the source)
  Control effect (%) of A applied alone in corresponding dose: 68.5%
[11]; A2 75 g a.i./ha
  Control effect (%) of A applied alone in corresponding dose: 54.2%
[11]; A2 150 g a.i./ha
  Control effect (%) of A applied alone in corresponding dose: 75.3%
[11]; A 75 g a.i./ha, foliage spray, fresh weight inhibition after 24 days
  Control effect (%) of A applied alone in corresponding dose: 54.2%
[11]; A 150 g a.i./ha, foliage spray, fresh weight inhibition after 24 days
  Control effect (%) of A applied alone in corresponding dose: 75.3%
[8]; [12]
  pest or weed control at 75 g/ha: 44.2%
[8]; [13]
  pest or weed control at 150 g/ha: 65%
[9]; [12]
  Control effect (%) of A applied alone in corresponding dose: 25.7%
[9]; [13]
  Control effect (%) of A applied alone in corresponding dose: 51.8%
